Here are results for 1 molecule from paper PMC8020931, “Spectroscopic and in silico investigation of the interaction between GH1 β‐glucosidase and ginsenoside Rb1” (Food Science & Nutrition, 2021).

The Kd is the equilibrium constant for the complex coming apart. A high value points to weaker binding.

This assay deals with T1, β‐glucosidase (GH1 family, bglB) (Paenibacillus polymyxa, UniProt P22505).
T1 construct: full-length protein encoded by bglB (448 aa, GenBank M60211.1), six His-tags, pET-28a(+), expressed in E. coli BL21(DE3)
Kind of assay: LSPR (enzyme immobilised on COOH chip, […] model); supported by fluorescence quenching, UV-Vis and CD. In kind it is binding.

T1 sequence (P22505 whole entry): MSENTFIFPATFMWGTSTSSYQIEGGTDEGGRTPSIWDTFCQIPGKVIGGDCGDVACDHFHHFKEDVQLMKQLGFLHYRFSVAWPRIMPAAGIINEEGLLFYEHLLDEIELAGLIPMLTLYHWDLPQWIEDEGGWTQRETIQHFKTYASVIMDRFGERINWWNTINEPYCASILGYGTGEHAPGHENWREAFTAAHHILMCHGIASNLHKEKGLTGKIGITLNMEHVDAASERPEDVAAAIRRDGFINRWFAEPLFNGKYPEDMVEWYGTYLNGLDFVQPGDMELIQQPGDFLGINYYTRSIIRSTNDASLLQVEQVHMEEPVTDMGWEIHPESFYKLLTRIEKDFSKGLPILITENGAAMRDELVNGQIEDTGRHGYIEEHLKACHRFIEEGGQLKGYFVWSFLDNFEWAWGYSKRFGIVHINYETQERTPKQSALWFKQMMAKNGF

`CC(C)=CCC[C@](C)(O[C@@H]1O[C@H](CO[C@@H]2O[C@H](CO)[C@@H](O)[C@H](O)[C@H]2O)[C@@H](O)[C@H](O)[C@H]1O)[C@H]1CC[C@]2(C)[C@@H]1[C@H](O)C[C@@H]1[C@@]3(C)CC[C@H](O[C@@H]4O[C@H](CO)[C@@H](O)[C@H](O)[C@H]4O[C@@H]4O[C@H](CO)[C@@H](O)[C@H](O)[C@H]4O)C(C)(C)[C@@H]3CC[C@]12C` [ginsenoside Rb1]: binding was put at a Kd of 524 µM.
